{"source": "paper PMC9322052", "about": "“Synthesis and Biological Activity Screening of Newly Synthesized Trimethoxyphenyl-Based Analogues as Potential Anticancer Agents” (Molecules, 2022)", "key": {"[1]": {"tested_on": "Bcl-2", "experiment": "ELISA quantification of Bcl-2 level", "type": "cell-based, human", "conditions": "HepG2, 1.38 μM (IC50), 48 h", "description": "(§1) Compound 9 was screened for its ability to activate p53 and Bax as well as downregulate the level of Bcl-2 to investigate the mechanistic apoptotic pathway that catalyzed the apoptosis process. HepG2 cells were treated with compound 9 at a concentration equal to its IC50 in μM, and the level of p53, Bax, and Bcl-2 was quantized using ELISA analysis. The results obtained for compound 9 show the increase in the level of p53 and Bax by 8.91- and 4.50-fold, respectively, compared with the negative control samples.\n(§2) Apoptotic markers (p53, Bax and Bcl-2) were measured in HepG2 cells using ELISA analysis according to the manufacturer’s directions. See Section 3.3.6 in Supplementary Material.\n(§3) Figure 6 (A) The quantification of p53. (B) The quantification of Bax. (C) The quantification of Bcl-2. HepG2 cells were treated with 1.38 μM of compound 9 for 48 h and apoptotic markers were determined by ELISA assay.\n(§4) 3.3.1. Cytotoxic activity evaluation\n(§5) To measure the cytotoxic activity of the synthesized derivatives 2a-11 in hepatocel-lular carcinoma (HepG2) cell line (ATCC Cat No. HB-8065) as well as normal human liver cell line HL-7702 (ATCC Cat. No. 77402), cell viability assay was assessed using MTT assay method. […] The color inten-sity of the formazan product, which represents the growth condition of the cells, is quan-tified by using an ELISA plate reader (EXL 800, USA) at 570 nm absorbance. […]"}, "[2]": {"tested_on": "HepG2 cells", "experiment": "Cell cycle analysis by PI staining / FACS", "type": "cell-based, human", "conditions": "48 h", "description": "It is well documented that exposure to microtubule targeting agents leads to the malformed mitotic spindle which eventually leads to cell cycle arrest at the G2/M phase and apoptosis induction. Thus, the effect of the selected candidate 9 on the cell cycle progression of the HepG2 cell line was examined by flow cytometry analysis (FACS). The HepG2 cell line was treated with the IC50 concentration of compound 9 for 48 h.\nCell cycle analysis in HepG2 cells was carried out by FACS analysis according to the manufacturer’s directions. See Section 3.3.3 in Supplementary Material.\nFigure 3 Compound 9 induces G2/M phase disturbance in HepG2 cells. (A) HepG2 cells were treated with 1.38 μM of compound 9 for 48 h. […]\nas §5\nCompounds 9, 10 and 11 were evaluated for their tubulin inhibitory activity levels according to the manufacturer’s instructions using # abcam Human Beta-tubulin simplestep […]"}, "[3]": {"tested_on": "p53", "experiment": "ELISA quantification of p53 level", "type": "cell-based, human", "conditions": "HepG2, 1.38 μM (IC50), 48 h", "description": "as §1, §2, §3, §4, §5"}}}
{"smiles": "COc1ccc(C2=N/C(=C\\c3cc(OC)c(OC)c(OC)c3)C(=O)NN2c2ccccc2)cc1OC", "note": "[Compound 9, (Z)-3-(3,4-Dimethoxyphenyl)-2-Phenyl-5-(3,4,5-Trimethoxybenzylidene)-1,2-Dihydro-1,2,4-Triazin-6(5H)-one]", "values": [{"measurement": "decrease in level of Bcl-2 compared with negative control", "setting": "[1]", "value": 5.58, "unit": "fold"}, {"measurement": "G2/M cell population percentage", "setting": "[2]; HepG2, 1.38 μM (IC50), control 13.28%", "value": 30.83, "unit": "%"}, {"measurement": "fold increase in G2/M cell population compared to untreated control", "setting": "[2]; HepG2, IC50 concentration", "value": "~3", "unit": "fold"}, {"measurement": "increase in level of p53 compared with negative control", "setting": "[3]", "value": 8.91, "unit": "fold"}, {"measurement": "melting point", "value": "248 to 250", "unit": "°C"}]}
